Measured values as given in EP2669276A1 (Université de Strasbourg, priority 2012, dated 2013).

Key:
hNPFF2 = biological target: T1, hNPFF2 (Homo sapiens, UniProt Q9Y5X5); assay: Receptor binding assay with [3H]-FFRFamide on CHO cell membranes expressing SF-hNPFFR2; details: [3H]-FFRF-NH2 radioligand, mean of at least two experiments; for Ki: read-out: Ki NPFF2
T1 construct: The cDNA encoding the full-length human NPFFR1 and human NPFFR2; expressed in transfected cells
Text: (§1) The cDNA encoding the full-length human NPFFR1 and human NPFFR2 were subcloned into the pcDNA3 expression vector (Invitrogen, Cergy Pontoise, France) using standard molecular biology methods. A sequence encoding a signal sequence and a Flag epitope was fused to the 5' coding sequence of both hNPFFR1 and hNPFFR2 cDNA according to (Guan et al., 1992) resulting in a SF-hNPFFR1 and SF-hNPFFR2 constructs. These contructs were stably transfected into CHO cells.
(§2) Membranes from CHO cells stably expressing SF-hNPFFR1 or SF-hNPFFR2 were prepared as described (Becker et al., 1999). SF-hNPFFR1 or SF-hNPFFR2 membranes (10µg) were incubated for 30 min at 25 °C in a final volume of 0.5 ml containing 50 mM HEPES pH 7.4, 1 mM CaCl2, 1 mM MgCl2, 0.1% bovine serum albumin, 10 nM and 3 nM [^3H]-FFRFamide (CEA, Paris; specific activity, 13,6 Ci/mmol) for […], respectively and the ligands to be tested. Non-specific binding was determined in presence of 1 µM neuropeptide FF for SF-hNPFFR2 and 1 µM neuropeptide VF for SF -hNPFFR1. Typical total and nonspecific binding were 1200 and 200 dpm, respectively for SF-hNPFFR1 and SF-hNPFFR2. Incubation mixtures were rapidly filtered and washed with 50 mM HEPES pH 7.4, 1 mM CaCl2, 1 mM MgCl2, on 96 wells GF/B unifilter (Perkin Elmer). Unifilter plates where then dryied for 1hr at 65°C. Bound radioactivity was determined by scintillation counting with 30 µl of scintillation cocktail (O-scint, Perkin Elmer) per well on a Topcount scintillation apparatus (Perkin Elmer).

hNPFF1 = biological target: T2, hNPFF1 (Homo sapiens, UniProt Q9GZQ6); assay: Receptor binding assay with [3H]-FFRFamide on CHO cell membranes expressing SF-hNPFFR1; details: [3H]-FFRF-NH2 radioligand, mean of at least two experiments; for Ki: read-out: Ki NPFF1
T2 construct: The cDNA encoding the full-length human NPFFR1 and human NPFFR2; expressed in transfected cells
Text: as §1, §2

T1 sequence (Q9Y5X5 whole entry): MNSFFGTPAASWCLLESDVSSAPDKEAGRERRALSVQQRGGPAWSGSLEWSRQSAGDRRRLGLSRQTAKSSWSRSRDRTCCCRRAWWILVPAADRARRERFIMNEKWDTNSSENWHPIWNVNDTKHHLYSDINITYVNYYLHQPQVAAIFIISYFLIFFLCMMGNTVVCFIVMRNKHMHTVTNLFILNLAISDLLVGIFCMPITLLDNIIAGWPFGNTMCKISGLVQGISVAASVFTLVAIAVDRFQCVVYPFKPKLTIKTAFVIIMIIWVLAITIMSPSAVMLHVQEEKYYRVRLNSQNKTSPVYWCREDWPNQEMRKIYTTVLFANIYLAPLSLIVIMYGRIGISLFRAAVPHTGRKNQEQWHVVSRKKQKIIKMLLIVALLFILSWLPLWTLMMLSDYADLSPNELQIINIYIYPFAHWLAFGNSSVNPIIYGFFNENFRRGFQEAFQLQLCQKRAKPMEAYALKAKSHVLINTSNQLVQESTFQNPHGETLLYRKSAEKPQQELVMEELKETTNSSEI
T2 sequence (Q9GZQ6 whole entry): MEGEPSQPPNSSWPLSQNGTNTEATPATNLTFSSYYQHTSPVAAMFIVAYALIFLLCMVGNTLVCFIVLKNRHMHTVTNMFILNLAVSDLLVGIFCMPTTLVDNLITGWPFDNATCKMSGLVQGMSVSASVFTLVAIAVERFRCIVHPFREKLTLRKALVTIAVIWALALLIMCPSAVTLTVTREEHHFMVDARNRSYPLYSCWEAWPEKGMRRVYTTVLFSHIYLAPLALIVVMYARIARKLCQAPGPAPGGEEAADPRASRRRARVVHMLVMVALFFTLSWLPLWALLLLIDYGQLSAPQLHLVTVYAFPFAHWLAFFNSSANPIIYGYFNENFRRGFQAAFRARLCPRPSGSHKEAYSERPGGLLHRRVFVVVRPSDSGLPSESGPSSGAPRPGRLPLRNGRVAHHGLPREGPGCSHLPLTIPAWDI

Row | Ki (hNPFF2) [nM] | Ki (hNPFF1) [nM] | inhibition at 0.5 µM (hNPFF2) [%] | inhibition at 5 µM (hNPFF2) [%] | inhibition at 0.5 µM (hNPFF1) [%] | inhibition at 5 µM (hNPFF1) [%] | Structure (SMILES)
1 | 2300 ± 66 | 240 ± 38 | – | – | – | – | O=C(N[C@@H](CCCNCc1ccccc1)C(=O)NCCc1ccccc1)c1ccccc1-c1ccccc1 [Compound 1, (2S)-5-(benzylamino)-N-(2-phenylethyl)-2-[(2-phenylphenyl)formamido]pentanamide]
2 | 910 ± 94 | 480 ± 33 | – | – | – | – | O=C(N[C@H](CCCNCc1ccccc1)C(=O)NCCc1ccccc1)c1ccccc1-c1ccccc1 [Compound 2, (2R)-5-(benzylamino)-N-(2-phenylethyl)-2-[(2-phenylphenyl)formamido]pentanamide]
3 | – | – | 15 ± 15 | 24 ± 6 | 29 ± 2 | 61 ± 1 | O=C(N[C@@H](CCCNCCc1ccccc1)C(=O)NCCc1ccccc1)c1ccccc1-c1ccccc1 [Compound 3, (2S)-N-(2-phenylethyl)-5-[(2-phenylethyl)amino]-2-[(2-phenylphenyl)formamido]pentanamide]
4 | 1300 ± 590 | 56 ± 11 | – | – | – | – | CN(CCc1ccccc1)C(=O)[C@H](CCCNCc1ccccc1)NC(=O)c1ccccc1-c1ccccc1 [Compound 5, (2S)-5-(benzylamino)-N-methyl-N-(2-phenylethyl)-2-[(2-phenylphenyl)formamido]pentanamide]
5 | 720 ± 59 | 210 ± 39 | – | – | – | – | O=C(N[C@@H](CCCCNCc1ccccc1)C(=O)NCCc1ccccc1)c1ccccc1-c1ccccc1 [Compound 6, (2S)-6-(benzylamino)-N-(2-phenylethyl)-2-[(2-phenylphenyl)formamido]hexanamide]
6 | 605 ± 180 | 22 ± 4 | – | – | – | – | O=C(N[C@H](CCCCNCc1ccccc1)C(=O)NCCc1ccccc1)c1ccccc1-c1ccccc1 [Compound 7, (2R)-6-(benzylamino)-N-(2-phenylethyl)-2-[(2-phenylphenyl)formamido]hexanamide]
7 | 103 ± 44 | 23 ± 4 | – | – | – | – | COc1ccccc1CNCCC[C@H](NC(=O)c1ccccc1-c1ccccc1)C(=O)NCCc1ccccc1 [Compound 8, (2S)-5-{[(2-methoxyphenyl)methyl]amino}-N-(2-phenylethyl)-2-[(2-phenylphenyl)formamido]pentanamide]
8 | – | – | 9 ± 1 | 45 | 21 ± 4 | 60 ± 3 | COc1cccc(CNCCC[C@H](NC(=O)c2ccccc2-c2ccccc2)C(=O)NCCc2ccccc2)c1 [Compound 9, (2S)-5-{[(3-methoxyphenyl)methyl]amino}-N-(2-phenylethyl)-2-[(2-phenylphenyl)formamido]pentanamide]
9 | – | – | 25 ± 5 | 64 ± 3 | 32 ± 1 | 74 ± 2 | O=C(N[C@@H](CCCNCc1ccccc1Cl)C(=O)NCCc1ccccc1)c1ccccc1-c1ccccc1 [Compound 12, (2S)-5-{[(2-chlorophenyl)methyl]amino}-N-(2-phenylethyl)-2-[(2-phenylphenyl)formamido]pentanamide]
10 | – | 59 ± 14 | 23 ± 17 | 67 ± 4 | – | – | O=C(N[C@@H](CCCNCc1cccc(Cl)c1)C(=O)NCCc1ccccc1)c1ccccc1-c1ccccc1 [Compound 13, (2S)-5-{[(3-chlorophenyl)methyl]amino}-N-(2-phenylethyl)-2-[(2-phenylphenyl)formamido]pentanamide]
11 | – | 45 ± 4 | 16 ± 2 | 54 ± 3 | – | – | O=C(N[C@@H](CCCNCc1ccc(Cl)cc1)C(=O)NCCc1ccccc1)c1ccccc1-c1ccccc1 [Compound 14, (2S)-5-{[(4-chlorophenyl)methyl]amino}-N-(2-phenylethyl)-2-[(2-phenylphenyl)formamido]pentanamide]
12 | 1100 ± 510 | 680 ± 160 | – | – | – | – | CN(CCC[C@H](NC(=O)c1ccccc1-c1ccccc1)C(=O)NCCc1ccccc1)Cc1ccccc1 [Compound 15, (2S)-5-[benzyl(methyl)amino]-N-(2-phenylethyl)-2-[(2-phenylphenyl)formamido]pentanamide]

Continued, compound first:

Row | Structure (SMILES) | Ki (hNPFF2) [nM] | Ki (hNPFF1) [nM] | inhibition at 0.5 µM (hNPFF2) [%] | inhibition at 5 µM (hNPFF2) [%] | inhibition at 0.5 µM (hNPFF1) [%] | inhibition at 5 µM (hNPFF1) [%]
13 | CC(C)CNCCC[C@H](NC(=O)c1ccccc1-c1ccccc1)C(=O)NCCc1ccccc1 [Compound 4, (2S)-5-[(2-methylpropyl)amino]-N-(2-phenylethyl)-2-[(2-phenylphenyl)formamido]pentanamide] | – | – | 2 ± 6 | 7 ± 15 | 14 ± 1 | 23
14 | COc1ccc(CNCCC[C@H](NC(=O)c2ccccc2-c2ccccc2)C(=O)NCCc2ccccc2)cc1 [Compound 10, (2S)-5-{[(4-methoxyphenyl)methyl]amino}-N-(2-phenylethyl)-2-[(2-phenylphenyl)formamido]pentanamide] | – | 30 ± 2 | 11 ± 20 | 40 ± 2 | – | –
15 | O=C(N[C@@H](CCCNC1CCCCC1)C(=O)NCCc1ccccc1)c1ccccc1-c1ccccc1 [Compound 11, (2S)-5-(cyclohexylamino)-N-(2-phenylethyl)-2-[(2-phenylphenyl)formamido]pentanamide] | – | – | 8 ± 3 | 26 ± 8 | 49 ± 37 | 37 ± 1
16 | COc1ccccc1CN(C)CCC[C@H](NC(=O)c1ccccc1-c1ccccc1)C(=O)NCCc1ccccc1 [Compound 16, (2S)-5-{[(2-methoxyphenyl)methyl](methyl)amino}-N-(2-phenylethyl)-2-[(2-phenylphenyl)formamido]pentanamide] | – | – | 6 ± 13 | 47 ± 1 | 9 ± 4 | 50 ± 10
17 | COc1ccc(CN(C)CCC[C@H](NC(=O)c2ccccc2-c2ccccc2)C(=O)NCCc2ccccc2)cc1OC [Compound 17, (2S)-5-{[(3,4-dimethoxyphenyl)methyl](methyl)amino}-N-(2-phenylethyl)-2-[(2-phenylphenyl)formamido]pentanamide] | – | – | 18 ± 2 | 48 ± 3 | 17 ± 5 | 65 ± 6
18 | CN(CCC[C@H](NC(=O)c1ccccc1-c1ccccc1)C(=O)NCCc1ccccc1)Cc1cccc(Cl)c1 [Compound 18, (2S)-5-{[(3-chlorophenyl)methyl](methyl)amino}-N-(2-phenylethyl)-2-[(2-phenylphenyl)formamido]pentanamide] | – | – | 8 ± 5 | 40 ± 3 | 8 ± 3 | 45 ± 2
19 | CN(CCC[C@H](NC(=O)c1ccccc1-c1ccccc1)C(=O)NCCc1ccccc1)Cc1ccccc1Cl [Compound 19, (2S)-5-{[(2-chlorophenyl)methyl](methyl)amino}-N-(2-phenylethyl)-2-[(2-phenylphenyl)formamido]pentanamide] | – | – | 0 | 39 ± 7 | 16 ± 5 | 60 ± 2
20 | CN(CCC[C@H](NC(=O)c1ccccc1-c1ccccc1)C(=O)NCCc1ccccc1)Cc1ccc(Cl)cc1 [Compound 20, (2S)-5-{[(4-chlorophenyl)methyl](methyl)amino}-N-(2-phenylethyl)-2-[(2-phenylphenyl)formamido]pentanamide] | – | – | 11 ± 3 | 39 ± 1 | 14 ± 7 | 51 ± 2
21 | COc1ccc(CN(C)CCC[C@H](NC(=O)c2ccccc2-c2ccccc2)C(=O)NCCc2ccccc2)cc1 [Compound 21, (2S)-5-{[(4-methoxyphenyl)methyl](methyl)amino}-N-(2-phenylethyl)-2-[(2-phenylphenyl)formamido]pentanamide] | – | – | 0 | 47 | 12 ± 10 | 58 ± 14
22 | COc1cccc(CN(C)CCC[C@H](NC(=O)c2ccccc2-c2ccccc2)C(=O)NCCc2ccccc2)c1 [Compound 22, (2S)-5-{[(3-methoxyphenyl)methyl](methyl)amino}-N-(2-phenylethyl)-2-[(2-phenylphenyl)formamido]pentanamide] | – | – | 6 | 39 ± 2 | 7 ± 6 | 50 ± 2
23 | CN(CCC[C@H](NC(=O)c1ccccc1-c1ccccc1)C(=O)NCCc1ccccc1)CCc1ccccc1 [Compound 23, (2S)-5-[methyl(2-phenylethyl)amino]-N-(2-phenylethyl)-2-[(2-phenylphenyl)formamido]pentanamide] | – | 103 ± 15 | 22 ± 3 | 35 ± 8 | – | –
24 | O=C(N[C@@H](CCCN1CCc2ccccc2C1)C(=O)NCCc1ccccc1)c1ccccc1-c1ccccc1 [Compound 24, (2S)-N-(2-phenylethyl)-2-[(2-phenylphenyl)formamido]-5-(1,2,3,4-tetrahydroisoquinolin-2-yl)pentanamide] | 320 ± 10 | 500 ± 10 | – | – | – | –
